Biological target: ALK2 (Homo sapiens (Human), UniProt Q04771)
Test: ALK2 inhibition, LanthaScreen Eu Kinase Binding Assay (ThermoFisher Scientific / Life Technologies)
Settings: read-out: Measured Ki (IC50) Value for Compounds: IC50
Method: Biochemical assays to measure the inhibitory effects of the compounds were performed by ThermoFisher Scientific (Life Technologies). ALK2 inhibition was tested using LanthaScreen™ Eu Kinase Binding Assay screening protocol.

Chain of ALK2 (Q04771 21-509): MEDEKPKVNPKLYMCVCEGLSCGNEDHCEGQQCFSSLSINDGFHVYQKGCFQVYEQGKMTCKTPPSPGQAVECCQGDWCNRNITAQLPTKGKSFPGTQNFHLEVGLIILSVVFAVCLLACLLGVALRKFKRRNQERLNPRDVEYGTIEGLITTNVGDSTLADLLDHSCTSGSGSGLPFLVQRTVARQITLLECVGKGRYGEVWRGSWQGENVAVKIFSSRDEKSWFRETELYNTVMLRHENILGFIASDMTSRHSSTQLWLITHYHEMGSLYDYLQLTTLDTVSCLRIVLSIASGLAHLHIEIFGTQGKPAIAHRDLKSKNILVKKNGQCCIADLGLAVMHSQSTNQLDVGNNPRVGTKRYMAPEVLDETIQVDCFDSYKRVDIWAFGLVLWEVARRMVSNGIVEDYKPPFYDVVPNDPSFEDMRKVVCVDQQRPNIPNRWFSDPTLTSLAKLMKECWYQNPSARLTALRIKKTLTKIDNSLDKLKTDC

IC50 [µM]	Molecule
< 0.1	OC[C@@H]1CCCN1c1nc(Nc2cn([C@H]3C[C@H](O)C3)cn2)c2cccn2n1 [Compound 471e, (trans)-3-(4-((2-((S)-2-(hydroxymethyl)pyrrolidin-1-yl)pyrrolo[2,1-f][1,2,4]triazin-4-yl)amino)-1H-imidazol-1-yl)cyclobutanol]
< 0.1	COc1cc(-n2cnc(Nc3nc(N4CCC[C@H]4CO)c4ccn(C(C)C)c4n3)c2)cc(OC)c1OC [Compound 472c, (S)-(1-(7-isopropyl-2-((1-(3,4,5-trimethoxyphenyl)-1H-imidazol-4-yl)amino)-7H-pyrrolo[2,3-d]pyrimidin-4-yl)pyrrolidin-2-yl)methanol]
< 0.1	OC[C@@H]1CCCN1c1nc(Nc2cn([C@H]3CC[C@H](CO)CC3)cn2)c2cccn2n1 [Compound 474e, ((S)-1-(4-((1-((trans)-4-(hydroxymethyl)cyclohexyl)-1H-imidazol-4-yl)amino)pyrrolo[2,1-f][1,2,4]triazin-2-yl)pyrrolidin-2-yl)methanol]
> 1	Cc1cc(Cl)cc(-c2cnc(Nc3nc(N4CCC[C@H]4CO)nn4cccc34)s2)c1 [Compound 475c, (S)-(1-(4-((5-(3-chloro-5-methylphenyl)thiazol-2-yl)amino)pyrrolo[2,1-f][1,2,4]triazin-2-yl)pyrrolidin-2-yl)methanol]
< 0.1	COc1cc(-c2cnc(Nc3nc(N4CCC[C@H]4CO)c4cccn4n3)s2)cc(OC)c1OC [Compound 476a, (S)-(1-(2-((5-(3,4,5-trimethoxyphenyl)thiazol-2-yl)amino)pyrrolo[2,1-f][1,2,4]triazin-4-yl)pyrrolidin-2-yl)methanol]
< 0.1	(R)-(1-(5-((1-(3,4,5-trimethoxyphenyl)-1H-imidazol-4-yl)amino)thiazolo[5,4-d]pyrimidin-7-yl)pyrrolidin-2-yl)methanol [Compound 323b]

— patent publication US11661426B2, “Imidazole-containing inhibitors of ALK2 kinase” (BioCryst Pharmaceuticals, Inc., priority 2017, dated 2023)
